Measured values taken from patent US20230085307A1, “PYRIDAZINONE COMPOUND AND HERBICIDE” (NISSAN CHEMICAL CORPORATION, priority 2019, published 2023).

Assays:
barnyard grass [1] = experiment: Test Example 3: herbicidal effect by foliage application, Wagner pot (Table 18, symbol H); assay type: in vivo, barnyard grass (Echinochloa crus-galli); conditions: amount of applied herbicide 320 g/ha
In short: (§1)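 Plants were sown in alluvial soil held under 0.1–0.5 cm standing water and grown 14 days in a greenhouse at 25–30 °C. An emulsifiable formulation, water-diluted to the set dose, was then sprayed onto the foliage, and effects were scored three weeks later using previously defined criteria.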

Chinese sprangletop = experiment: Test Example 3: herbicidal effect by foliage application, Wagner pot (Table 18, symbol D); assay type: in vivo, chinese sprangletop (Leptochloa chinensis); conditions: amount of applied herbicide 320 g/ha
In short: as §1

rice flat sedge = experiment: Test Example 3: herbicidal effect by foliage application, Wagner pot (Table 18, symbol E); assay type: in vivo, rice flat sedge (Cyperus iria); conditions: amount of applied herbicide 320 g/ha
In short: as §1

southern crabgrass [2] = experiment: Test Example 4: herbicidal effect by soil treatment (Table 19, symbol F); assay type: in vivo, southern crabgrass (Digitaria ciliaris); conditions: amount of applied herbicide 320 g/ha
In short: (§2)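 Applied as a water-diluted emulsion, the compound was sprayed onto soil covering newly sown seeds. Evaluation came three weeks after application, in a greenhouse held at 25° C. to 30° C.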

green foxtail [3] = experiment: Test Example 4: herbicidal effect by soil treatment (Table 19, symbol G); assay type: in vivo, green foxtail (Setaria viridis); conditions: amount of applied herbicide 320 g/ha
In short: as §2

barnyard grass [4] = experiment: Test Example 4: herbicidal effect by soil treatment (Table 19, symbol H); assay type: in vivo, barnyard grass (Echinochloa crus-galli); conditions: amount of applied herbicide 320 g/ha
In short: as §2

wild oat [5] = experiment: Test Example 4: herbicidal effect by soil treatment (Table 19, symbol I); assay type: in vivo, wild oat (Avena fatua); conditions: amount of applied herbicide 320 g/ha
In short: as §2

blackgrass [6] = experiment: Test Example 4: herbicidal effect by soil treatment (Table 19, symbol J); assay type: in vivo, blackgrass (Alopecurus myosuroides); conditions: amount of applied herbicide 320 g/ha
In short: as §2

Italian ryegrass [7] = experiment: Test Example 4: herbicidal effect by soil treatment (Table 19, symbol K); assay type: in vivo, Italian ryegrass (Lolium multiflorum); conditions: amount of applied herbicide 320 g/ha
In short: as §2

windgrass [8] = experiment: Test Example 4: herbicidal effect by soil treatment (Table 19, symbol L); assay type: in vivo, windgrass (Apera spica-venti); conditions: amount of applied herbicide 320 g/ha
In short: as §2

velvetleaf [9] = experiment: Test Example 4: herbicidal effect by soil treatment (Table 19, symbol M); assay type: in vivo, velvetleaf (Abutilon theophrasti); conditions: amount of applied herbicide 320 g/ha
In short: as §2

redroot pigweed [10] = experiment: Test Example 4: herbicidal effect by soil treatment (Table 19, symbol N); assay type: in vivo, redroot pigweed (Amaranthus retroflexus); conditions: amount of applied herbicide 320 g/ha
In short: as §2

lambsquarters [11] = experiment: Test Example 4: herbicidal effect by soil treatment (Table 19, symbol O); assay type: in vivo, lambsquarters (Chenopodium album); conditions: amount of applied herbicide 320 g/ha
In short: as §2

chickweed [12] = experiment: Test Example 4: herbicidal effect by soil treatment (Table 19, symbol P); assay type: in vivo, common chickweed (Stellaria media); conditions: amount of applied herbicide 320 g/ha
In short: as §2

false cleavers = experiment: Test Example 4: herbicidal effect by soil treatment (Table 19, symbol Q); assay type: in vivo, false cleavers (Galium spurium); conditions: amount of applied herbicide 320 g/ha
In short: as §2

persian speedwell [13] = experiment: Test Example 4: herbicidal effect by soil treatment (Table 19, symbol R); assay type: in vivo, Persian speedwell (Veronica persica); conditions: amount of applied herbicide 320 g/ha
In short: as §2

southern crabgrass [14] = experiment: Test Example 5: herbicidal effect by foliage application, plastic box (Table 20, symbol F); assay type: in vivo, southern crabgrass (Digitaria ciliaris); conditions: foliage application, evaluated three weeks after application
In short: (§3)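 Sow seeds spot-wise in sterilized diluvial soil; cover with ~1.5 cm soil. Grow 14 days in greenhouse, 25° C. to 30° C. Spray foliage with emulsion diluted to predetermined amount. Rate effect after 3 weeks.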

green foxtail [15] = experiment: Test Example 5: herbicidal effect by foliage application, plastic box (Table 20, symbol G); assay type: in vivo, green foxtail (Setaria viridis); conditions: foliage application, evaluated three weeks after application
In short: as §3

barnyard grass [16] = experiment: Test Example 5: herbicidal effect by foliage application, plastic box (Table 20, symbol H); assay type: in vivo, barnyard grass (Echinochloa crus-galli); conditions: foliage application, evaluated three weeks after application
In short: as §3

wild oat [17] = experiment: Test Example 5: herbicidal effect by foliage application, plastic box (Table 20, symbol I); assay type: in vivo, wild oat (Avena fatua); conditions: foliage application, evaluated three weeks after application
In short: as §3

blackgrass [18] = experiment: Test Example 5: herbicidal effect by foliage application, plastic box (Table 20, symbol J); assay type: in vivo, blackgrass (Alopecurus myosuroides); conditions: foliage application, evaluated three weeks after application
In short: as §3

Italian ryegrass [19] = experiment: Test Example 5: herbicidal effect by foliage application, plastic box (Table 20, symbol K); assay type: in vivo, Italian ryegrass (Lolium multiflorum); conditions: foliage application, evaluated three weeks after application
In short: as §3

windgrass [20] = experiment: Test Example 5: herbicidal effect by foliage application, plastic box (Table 20, symbol L); assay type: in vivo, windgrass (Apera spica-venti); conditions: foliage application, evaluated three weeks after application
In short: as §3

velvetleaf [21] = experiment: Test Example 5: herbicidal effect by foliage application, plastic box (Table 20, symbol M); assay type: in vivo, velvetleaf (Abutilon theophrasti); conditions: foliage application, evaluated three weeks after application
In short: as §3

redroot pigweed [22] = experiment: Test Example 5: herbicidal effect by foliage application, plastic box (Table 20, symbol N); assay type: in vivo, redroot pigweed (Amaranthus retroflexus); conditions: foliage application, evaluated three weeks after application
In short: as §3

lambsquarters [23] = experiment: Test Example 5: herbicidal effect by foliage application, plastic box (Table 20, symbol O); assay type: in vivo, lambsquarters (Chenopodium album); conditions: foliage application, evaluated three weeks after application
In short: as §3

chickweed [24] = experiment: Test Example 5: herbicidal effect by foliage application, plastic box (Table 20, symbol P); assay type: in vivo, common chickweed (Stellaria media); conditions: foliage application, evaluated three weeks after application
In short: as §3

persian speedwell [25] = experiment: Test Example 5: herbicidal effect by foliage application, plastic box (Table 20, symbol R); assay type: in vivo, Persian speedwell (Veronica persica); conditions: foliage application, evaluated three weeks after application
In short: as §3

COc1cc(F)ccc1-c1sc2ccc(C(C)=NOC(C)C)cc2c1-c1c(O)c(C)nn(C)c1=O [2-195]
herbicidal effect on H: barnyard grass (barnyard grass [1]): 3 (Herbicidal rate of 40% or more and less than 70%) | herbicidal effect on D: Chinese sprangletop (Chinese sprangletop): 0 (Herbicidal rate of 5% or less (almost no effect)) | herbicidal effect on E: rice flat sedge (rice flat sedge): 0 (Herbicidal rate of 5% or less (almost no effect)) | F: southern crabgrass, herbicidal effect rating (southern crabgrass [2]): 0 (Herbicidal rate of 5% or less (almost no effect)) | G: green foxtail, herbicidal effect rating (green foxtail [3]): 0 (Herbicidal rate of 5% or less (almost no effect)) | H: barnyard grass, herbicidal effect rating (barnyard grass [4]): 0 (Herbicidal rate of 5% or less (almost no effect)) | I: wild oat, herbicidal effect rating (wild oat [5]): 0 (Herbicidal rate of 5% or less (almost no effect)) | J: blackgrass, herbicidal effect rating (blackgrass [6]): 0 (Herbicidal rate of 5% or less (almost no effect)) | K: Italian ryegrass, herbicidal effect rating (Italian ryegrass [7]): 0 (Herbicidal rate of 5% or less (almost no effect)) | L: windgrass, herbicidal effect rating (windgrass [8]): 0 (Herbicidal rate of 5% or less (almost no effect)) | M: velvetleaf, herbicidal effect rating (velvetleaf [9]): 0 (Herbicidal rate of 5% or less (almost no effect)) | N: redroot pigweed, herbicidal effect rating (redroot pigweed [10]): 3 (Herbicidal rate of 40% or more and less than 70%) | O: lambsquarters, herbicidal effect rating (lambsquarters [11]): 3 (Herbicidal rate of 40% or more and less than 70%) | P: chickweed, herbicidal effect rating (chickweed [12]): 0 (Herbicidal rate of 5% or less (almost no effect)) | Q: false cleavers, herbicidal effect rating (false cleavers): 0 (Herbicidal rate of 5% or less (almost no effect)) | R: persian speedwell, herbicidal effect rating (persian speedwell [13]): 4 (Herbicidal rate of 70% or more and less than 90%) | herbicidal effect on F: southern crabgrass (criteria 0-5) (southern crabgrass [14]; 320 g/ha): 2 (Herbicidal rate of 20% or more and less than 40%) | herbicidal effect on G: green foxtail (criteria 0-5) (green foxtail [15]; 320 g/ha): 0 (Herbicidal rate of 5% or less (almost no effect)) | herbicidal effect on H: barnyard grass (criteria 0-5) (barnyard grass [16]; 320 g/ha): 2 (Herbicidal rate of 20% or more and less than 40%) | herbicidal effect on I: wild oat (criteria 0-5) (wild oat [17]; 320 g/ha): 0 (Herbicidal rate of 5% or less (almost no effect)) | herbicidal effect on J: blackgrass (criteria 0-5) (blackgrass [18]; 320 g/ha): 4 (Herbicidal rate of 70% or more and less than 90%) | herbicidal effect on K: Italian ryegrass (criteria 0-5) (Italian ryegrass [19]; 320 g/ha): 0 (Herbicidal rate of 5% or less (almost no effect)) | herbicidal effect on L: windgrass (criteria 0-5) (windgrass [20]; 320 g/ha): 0 (Herbicidal rate of 5% or less (almost no effect)) | herbicidal effect on M: velvetleaf (criteria 0-5) (velvetleaf [21]; 320 g/ha): 2 (Herbicidal rate of 20% or more and less than 40%) | herbicidal effect on N: redroot pigweed (criteria 0-5) (redroot pigweed [22]; 320 g/ha): 3 (Herbicidal rate of 40% or more and less than 70%) | herbicidal effect on O: lambsquarters (criteria 0-5) (lambsquarters [23]; 320 g/ha): 4 (Herbicidal rate of 70% or more and less than 90%) | herbicidal effect on P: chickweed (criteria 0-5) (chickweed [24]; 320 g/ha): 5 (Herbicidal rate of 90% or more (almost completely withered)) | herbicidal effect on R: persian speedwell (criteria 0-5) (persian speedwell [25]; 320 g/ha): 5 (Herbicidal rate of 90% or more (almost completely withered))

Cc1nn(C)c(=O)c(-c2c(-c3ccc(OC(F)F)cc3)sc3ccc(F)cc23)c1OC(=O)N1CCOCC1 [2-290]
herbicidal effect on H: barnyard grass (barnyard grass [1]): 4 (Herbicidal rate of 70% or more and less than 90%) | herbicidal effect on D: Chinese sprangletop (Chinese sprangletop): 4 (Herbicidal rate of 70% or more and less than 90%) | herbicidal effect on E: rice flat sedge (rice flat sedge): 3 (Herbicidal rate of 40% or more and less than 70%) | herbicidal effect on F: southern crabgrass (southern crabgrass [2]): 0 (Herbicidal rate of 5% or less (almost no effect)) | herbicidal effect on G: green foxtail (green foxtail [3]): 0 (Herbicidal rate of 5% or less (almost no effect)) | herbicidal effect on H: barnyard grass (barnyard grass [4]): 0 (Herbicidal rate of 5% or less (almost no effect)) | herbicidal effect on I: wild oat (wild oat [5]): 0 (Herbicidal rate of 5% or less (almost no effect)) | herbicidal effect on J: blackgrass (blackgrass [6]): 0 (Herbicidal rate of 5% or less (almost no effect)) | herbicidal effect on K: Italian ryegrass (Italian ryegrass [7]): 0 (Herbicidal rate of 5% or less (almost no effect)) | herbicidal effect on L: windgrass (windgrass [8]): 0 (Herbicidal rate of 5% or less (almost no effect)) | herbicidal effect on M: velvetleaf (velvetleaf [9]): 0 (Herbicidal rate of 5% or less (almost no effect)) | herbicidal effect on N: redroot pigweed (redroot pigweed [10]): 1 (Herbicidal rate of 5% or more and less than 20%) | herbicidal effect on O: lambsquarters (lambsquarters [11]): 3 (Herbicidal rate of 40% or more and less than 70%) | herbicidal effect on P: chickweed (chickweed [12]): 0 (Herbicidal rate of 5% or less (almost no effect)) | herbicidal effect on Q: false cleavers (false cleavers): 0 (Herbicidal rate of 5% or less (almost no effect)) | herbicidal effect on R: persian speedwell (persian speedwell [13]): 3 (Herbicidal rate of 40% or more and less than 70%) | F: southern crabgrass, herbicidal effect (criteria 0-5) (southern crabgrass [14]; AAH 320 g/ha): 0 (Herbicidal rate of 5% or less (almost no effect)) | G: green foxtail, herbicidal effect (criteria 0-5) (green foxtail [15]; AAH 320 g/ha): 2 (Herbicidal rate of 20% or more and less than 40%) | H: barnyard grass, herbicidal effect (criteria 0-5) (barnyard grass [16]; AAH 320 g/ha): 2 (Herbicidal rate of 20% or more and less than 40%) | I: wild oat, herbicidal effect (criteria 0-5) (wild oat [17]; AAH 320 g/ha): 0 (Herbicidal rate of 5% or less (almost no effect)) | J: blackgrass, herbicidal effect (criteria 0-5) (blackgrass [18]; AAH 320 g/ha): 0 (Herbicidal rate of 5% or less (almost no effect)) | K: Italian ryegrass, herbicidal effect (criteria 0-5) (Italian ryegrass [19]; AAH 320 g/ha): 0 (Herbicidal rate of 5% or less (almost no effect)) | L: windgrass, herbicidal effect (criteria 0-5) (windgrass [20]; AAH 320 g/ha): 0 (Herbicidal rate of 5% or less (almost no effect)) | M: velvetleaf, herbicidal effect (criteria 0-5) (velvetleaf [21]; AAH 320 g/ha): 4 (Herbicidal rate of 70% or more and less than 90%) | N: redroot pigweed, herbicidal effect (criteria 0-5) (redroot pigweed [22]; AAH 320 g/ha): 5 (Herbicidal rate of 90% or more (almost completely withered)) | O: lambsquarters, herbicidal effect (criteria 0-5) (lambsquarters [23]; AAH 320 g/ha): 5 (Herbicidal rate of 90% or more (almost completely withered)) | P: chickweed, herbicidal effect (criteria 0-5) (chickweed [24]; AAH 320 g/ha): 5 (Herbicidal rate of 90% or more (almost completely withered)) | R: persian speedwell, herbicidal effect (criteria 0-5) (persian speedwell [25]; AAH 320 g/ha): 5 (Herbicidal rate of 90% or more (almost completely withered))
